Measured values: patent US11572590B2, “Methods for evaluating tumor cell spheroids using 3D microfluidic cell culture device” (Dana-Farber Cancer Institute, Inc., priority 2017, dated 2023)
Like-named read-outs stand apart in the source and are kept apart here.

How the values were obtained:
Assay in all cases: SelectScreen Kinase Profiling, single point inhibition and IC50 for off-target kinases
Type in all cases: biochemical
off-target kinases [1] = biological target: off-target kinases (Homo sapiens, UniProt P08581, D1228H); conditions: MET D1228H, LanthaScreen Binding
off-target kinases [2] = biological target: off-target kinases (Homo sapiens, UniProt Q96RG2); conditions: PASK, ZLYTE, ATP Km app
off-target kinases [3] = biological target: T1, off-target kinases (Homo sapiens, UniProt Q32MK0); conditions: MLCK (MLCK2), LanthaScreen Binding
T1 sequence (Q32MK0 1-819): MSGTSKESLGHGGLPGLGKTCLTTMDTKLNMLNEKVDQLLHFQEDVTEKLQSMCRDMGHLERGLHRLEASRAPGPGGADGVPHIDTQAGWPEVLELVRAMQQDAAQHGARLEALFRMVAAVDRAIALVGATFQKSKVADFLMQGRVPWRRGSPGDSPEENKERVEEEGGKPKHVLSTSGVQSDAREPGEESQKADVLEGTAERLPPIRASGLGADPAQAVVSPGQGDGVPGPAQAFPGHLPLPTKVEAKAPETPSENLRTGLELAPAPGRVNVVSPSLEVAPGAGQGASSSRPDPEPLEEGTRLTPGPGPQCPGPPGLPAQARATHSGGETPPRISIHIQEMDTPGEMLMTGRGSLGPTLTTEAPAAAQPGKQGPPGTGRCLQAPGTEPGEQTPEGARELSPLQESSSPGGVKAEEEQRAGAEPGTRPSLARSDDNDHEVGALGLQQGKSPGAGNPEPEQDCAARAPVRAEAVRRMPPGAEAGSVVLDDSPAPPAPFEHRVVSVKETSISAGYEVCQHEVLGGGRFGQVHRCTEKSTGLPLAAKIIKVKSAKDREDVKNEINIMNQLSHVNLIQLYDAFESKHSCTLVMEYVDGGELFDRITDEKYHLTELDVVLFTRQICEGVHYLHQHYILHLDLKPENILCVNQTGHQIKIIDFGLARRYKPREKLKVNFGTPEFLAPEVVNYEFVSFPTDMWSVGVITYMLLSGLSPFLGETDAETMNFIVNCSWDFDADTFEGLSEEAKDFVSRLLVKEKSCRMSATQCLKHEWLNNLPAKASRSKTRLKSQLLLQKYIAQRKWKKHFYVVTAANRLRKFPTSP

off-target kinases [4] = biological target: off-target kinases (Homo sapiens, UniProt P00533, L858R/T790M); conditions: EGFR (ErbB1) T790M L858R, mutant y, ZLYTE, ATP Km app
off-target kinases [5] = biological target: T2, off-target kinases (Homo sapiens, UniProt Q08881); conditions: ITK, ZLYTE, ATP Km app
T2 sequence (Q08881 1-620): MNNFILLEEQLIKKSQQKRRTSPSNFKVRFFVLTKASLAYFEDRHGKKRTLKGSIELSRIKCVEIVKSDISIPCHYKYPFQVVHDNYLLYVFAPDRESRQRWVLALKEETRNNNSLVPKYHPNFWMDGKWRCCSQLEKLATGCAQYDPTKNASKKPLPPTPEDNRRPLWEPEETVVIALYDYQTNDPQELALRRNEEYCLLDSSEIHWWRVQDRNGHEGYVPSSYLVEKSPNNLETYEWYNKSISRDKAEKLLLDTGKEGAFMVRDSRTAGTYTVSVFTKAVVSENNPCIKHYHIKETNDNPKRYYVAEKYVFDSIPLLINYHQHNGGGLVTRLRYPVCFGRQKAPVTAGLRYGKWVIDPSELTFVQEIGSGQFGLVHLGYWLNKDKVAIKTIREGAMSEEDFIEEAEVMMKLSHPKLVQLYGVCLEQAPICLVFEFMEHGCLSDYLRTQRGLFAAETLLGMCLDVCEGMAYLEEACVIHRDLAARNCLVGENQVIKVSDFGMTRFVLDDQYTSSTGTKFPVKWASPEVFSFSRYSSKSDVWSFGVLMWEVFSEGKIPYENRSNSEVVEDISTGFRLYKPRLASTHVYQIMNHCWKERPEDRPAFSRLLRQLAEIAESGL

Chain of off-target kinases (Homo sapiens, UniProt P08581, D1228H) (P08581 25-1390 D1228H): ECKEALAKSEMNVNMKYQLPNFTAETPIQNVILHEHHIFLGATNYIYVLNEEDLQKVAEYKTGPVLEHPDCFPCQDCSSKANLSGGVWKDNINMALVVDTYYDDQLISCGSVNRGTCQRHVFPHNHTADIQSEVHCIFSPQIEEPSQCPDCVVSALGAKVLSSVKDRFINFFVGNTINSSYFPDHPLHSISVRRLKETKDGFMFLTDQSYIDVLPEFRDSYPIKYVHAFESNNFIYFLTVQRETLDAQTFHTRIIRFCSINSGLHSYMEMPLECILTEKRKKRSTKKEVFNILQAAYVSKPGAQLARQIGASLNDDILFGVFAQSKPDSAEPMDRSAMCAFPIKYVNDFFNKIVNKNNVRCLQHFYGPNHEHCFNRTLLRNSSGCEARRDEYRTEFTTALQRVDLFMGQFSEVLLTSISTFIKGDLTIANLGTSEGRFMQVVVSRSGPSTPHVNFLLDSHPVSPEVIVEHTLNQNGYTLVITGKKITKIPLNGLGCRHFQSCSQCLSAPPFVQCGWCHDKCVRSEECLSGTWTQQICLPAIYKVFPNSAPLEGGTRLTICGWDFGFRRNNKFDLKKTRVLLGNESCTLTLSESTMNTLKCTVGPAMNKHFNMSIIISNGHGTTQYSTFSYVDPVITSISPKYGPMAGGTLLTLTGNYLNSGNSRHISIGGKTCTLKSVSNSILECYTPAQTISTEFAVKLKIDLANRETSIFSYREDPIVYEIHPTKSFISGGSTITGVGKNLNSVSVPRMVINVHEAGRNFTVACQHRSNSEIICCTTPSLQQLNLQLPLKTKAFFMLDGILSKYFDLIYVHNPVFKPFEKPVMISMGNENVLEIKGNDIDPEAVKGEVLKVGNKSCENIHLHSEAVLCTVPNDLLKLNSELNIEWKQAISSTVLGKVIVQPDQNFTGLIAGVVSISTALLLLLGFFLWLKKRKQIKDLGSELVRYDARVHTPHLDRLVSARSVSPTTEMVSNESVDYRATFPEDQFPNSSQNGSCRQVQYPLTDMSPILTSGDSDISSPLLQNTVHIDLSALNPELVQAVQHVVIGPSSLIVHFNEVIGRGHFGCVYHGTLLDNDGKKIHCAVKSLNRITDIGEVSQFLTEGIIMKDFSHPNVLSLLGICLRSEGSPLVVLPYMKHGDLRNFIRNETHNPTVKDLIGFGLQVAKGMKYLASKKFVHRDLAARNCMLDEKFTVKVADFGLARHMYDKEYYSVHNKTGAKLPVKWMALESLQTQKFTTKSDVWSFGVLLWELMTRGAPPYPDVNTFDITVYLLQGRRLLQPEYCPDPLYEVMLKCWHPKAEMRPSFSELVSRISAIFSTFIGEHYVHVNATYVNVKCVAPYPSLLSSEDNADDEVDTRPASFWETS
Chain of off-target kinases (Homo sapiens, UniProt P00533, L858R/T790M) (P00533 25-1210 T790M/L858R): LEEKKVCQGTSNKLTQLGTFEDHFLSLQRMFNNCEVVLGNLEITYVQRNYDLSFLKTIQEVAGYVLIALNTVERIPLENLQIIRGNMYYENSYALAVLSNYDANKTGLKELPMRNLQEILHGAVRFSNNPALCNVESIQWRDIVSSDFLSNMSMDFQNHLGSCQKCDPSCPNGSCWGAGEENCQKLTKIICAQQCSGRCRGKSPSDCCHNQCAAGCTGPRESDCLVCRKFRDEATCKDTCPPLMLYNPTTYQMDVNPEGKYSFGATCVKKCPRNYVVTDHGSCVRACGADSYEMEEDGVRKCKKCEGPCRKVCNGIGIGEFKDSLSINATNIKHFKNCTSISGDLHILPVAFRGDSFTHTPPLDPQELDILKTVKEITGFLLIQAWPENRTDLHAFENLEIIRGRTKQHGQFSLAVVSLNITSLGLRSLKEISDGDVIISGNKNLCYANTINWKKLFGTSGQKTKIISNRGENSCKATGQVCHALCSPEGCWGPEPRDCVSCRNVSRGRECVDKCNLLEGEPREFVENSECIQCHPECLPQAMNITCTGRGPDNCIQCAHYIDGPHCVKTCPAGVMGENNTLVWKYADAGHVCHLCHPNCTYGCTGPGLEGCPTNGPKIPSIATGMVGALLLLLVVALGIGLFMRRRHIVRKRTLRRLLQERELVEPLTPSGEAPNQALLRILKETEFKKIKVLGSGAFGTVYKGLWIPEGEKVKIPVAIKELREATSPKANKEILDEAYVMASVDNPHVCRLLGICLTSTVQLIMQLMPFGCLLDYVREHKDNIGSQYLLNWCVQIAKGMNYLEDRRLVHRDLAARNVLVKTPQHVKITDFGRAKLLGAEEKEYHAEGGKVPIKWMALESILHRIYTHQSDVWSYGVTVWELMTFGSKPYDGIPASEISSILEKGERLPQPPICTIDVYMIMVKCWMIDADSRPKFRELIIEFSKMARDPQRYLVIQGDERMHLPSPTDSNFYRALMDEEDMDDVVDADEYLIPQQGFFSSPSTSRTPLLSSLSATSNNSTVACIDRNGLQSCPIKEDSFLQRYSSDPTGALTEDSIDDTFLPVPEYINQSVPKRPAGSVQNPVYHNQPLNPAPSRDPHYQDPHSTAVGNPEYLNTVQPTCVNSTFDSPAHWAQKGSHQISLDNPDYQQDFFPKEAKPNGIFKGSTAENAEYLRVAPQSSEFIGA
Chain of off-target kinases (Homo sapiens, UniProt Q96RG2) (Q96RG2 whole entry): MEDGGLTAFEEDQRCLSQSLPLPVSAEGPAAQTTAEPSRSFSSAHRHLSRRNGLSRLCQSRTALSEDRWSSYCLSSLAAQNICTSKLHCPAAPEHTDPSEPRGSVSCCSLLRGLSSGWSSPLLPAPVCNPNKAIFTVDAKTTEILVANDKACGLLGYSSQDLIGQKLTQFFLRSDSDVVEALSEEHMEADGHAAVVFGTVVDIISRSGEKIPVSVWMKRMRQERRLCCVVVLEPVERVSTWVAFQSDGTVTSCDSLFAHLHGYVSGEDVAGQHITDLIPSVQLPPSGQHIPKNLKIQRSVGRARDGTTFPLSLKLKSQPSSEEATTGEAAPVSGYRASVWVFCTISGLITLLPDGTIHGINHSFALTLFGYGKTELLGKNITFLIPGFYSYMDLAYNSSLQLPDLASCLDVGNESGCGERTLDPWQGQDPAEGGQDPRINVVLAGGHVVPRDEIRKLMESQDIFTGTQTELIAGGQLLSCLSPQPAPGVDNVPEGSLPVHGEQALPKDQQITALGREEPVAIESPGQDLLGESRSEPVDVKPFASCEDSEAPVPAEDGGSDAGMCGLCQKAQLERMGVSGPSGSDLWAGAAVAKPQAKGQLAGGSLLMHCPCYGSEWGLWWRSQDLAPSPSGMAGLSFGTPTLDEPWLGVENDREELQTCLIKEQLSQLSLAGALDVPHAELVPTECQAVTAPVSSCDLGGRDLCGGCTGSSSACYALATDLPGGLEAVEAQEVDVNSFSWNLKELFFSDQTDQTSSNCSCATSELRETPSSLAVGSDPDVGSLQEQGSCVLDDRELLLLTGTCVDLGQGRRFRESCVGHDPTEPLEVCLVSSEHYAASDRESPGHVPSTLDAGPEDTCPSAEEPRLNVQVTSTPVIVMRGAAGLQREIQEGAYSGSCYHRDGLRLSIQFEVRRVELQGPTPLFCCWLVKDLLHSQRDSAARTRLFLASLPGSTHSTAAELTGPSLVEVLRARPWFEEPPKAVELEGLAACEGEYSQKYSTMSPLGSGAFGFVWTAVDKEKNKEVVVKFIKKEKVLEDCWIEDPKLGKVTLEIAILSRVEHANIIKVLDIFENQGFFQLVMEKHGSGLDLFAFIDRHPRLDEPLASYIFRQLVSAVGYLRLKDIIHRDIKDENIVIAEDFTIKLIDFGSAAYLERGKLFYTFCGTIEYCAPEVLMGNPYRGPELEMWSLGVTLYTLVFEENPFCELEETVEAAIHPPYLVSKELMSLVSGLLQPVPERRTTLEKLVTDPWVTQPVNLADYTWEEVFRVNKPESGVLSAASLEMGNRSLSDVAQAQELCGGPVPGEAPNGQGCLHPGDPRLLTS

In the case of `N#Cc1cc(-c2ncnc(Nc3ccc(N4CCN(C5COC5)CC4)cc3)n2)ccc1OC1CCOCC1` [Compound 1, 5-(4-((4-(4-(oxetan-3-yl)piperazin-1-yl)phenyl)amino)-1,3,5-triazin-2-yl)-2-((tetrahydro-2H-pyran-4-yl)oxy)benzonitrile], the inhibition (off-target kinases [1]; read-out: % Inhibition 1) is reported as 46%, the inhibition (off-target kinases [1]; read-out: % Inhibition 2) is reported as 48% and the inhibition (off-target kinases [1]; read-out: % Inhibition Avg) is reported as 47%. For the same compound, the inhibition (off-target kinases [2]; read-out: % Inhibition 1) was 3%, the inhibition (off-target kinases [2]; read-out: % Inhibition 2) was 1% and the inhibition (off-target kinases [2]; read-out: % Inhibition Avg) was 2%. It also gave an inhibition (off-target kinases [3]; read-out: % Inhibition 1) of 92%, an inhibition (off-target kinases [3]; read-out: % Inhibition 2) of 93% and an inhibition (off-target kinases [3]; read-out: % Inhibition Avg) of 93%. It also gave an inhibition (off-target kinases [4]; read-out: % Inhibition 1) of 34%, an inhibition (off-target kinases [4]; read-out: % Inhibition 2) of 29% and an inhibition (off-target kinases [4]; read-out: % Inhibition Avg) of 31%. It also gave an inhibition (off-target kinases [5]; read-out: % Inhibition 1) of 37%, an inhibition (off-target kinases [5]; read-out: % Inhibition 2) of 32% and an inhibition (off-target kinases [5]; read-out: % Inhibition Avg) of 34%.
